Assay results taken from paper PMC5338263, “GS-5734 and its parent nucleoside analog inhibit Filo-, Pneumo-, and Paramyxoviruses” (Scientific Reports, 2017).
“Also recorded” adds a separate entry of the source. Like-named read-outs stand apart in the source and are kept apart here.

Assays:
SARS-CoV = conditions: cited from earlier work
[1] = Cell viability assay (CellTiter-Glo 2.0), 293T/17; conditions: human, uninfected 293T/17 cells
[2] = tested on: recombinant reporter-expressing NiV, EBOV, and Marburg viruses (MARV); test: microbe, parasite or virus in culture; assay type: cell-based; conditions: Zaire ebolavirus, read-out: EC50 values (range over viruses)
NiV B-2004 [3] = test: microbe, parasite or virus in culture; conditions: Henipavirus nipahense, HeLa
WNV = conditions: cited from earlier work
TBEV Hypr = test: microbe, parasite or virus in culture; conditions: Tick-borne encephalitis virus, A549
NiV B-2004 (Nipah virus) [4] = test: in vitro; conditions: human
DenV = conditions: cited from earlier work
MV Rec. rMV^EZGFP(3) = test: microbe, parasite or virus in culture; conditions: Measles morbillivirus, HeLa
EBOV wt Makona = test: microbe, parasite or virus in culture; assay type: cell-based, Ebola virus; conditions: Zaire ebolavirus, Huh-7
MV EZ vaccine [5] = tested on: MV EZ vaccine
HeV 1996 (Hendra virus) [6] = test: in vitro; conditions: human
hPIV3 = conditions: cited from earlier work
MV EZ vaccine [7] = test: microbe, parasite or virus in culture; conditions: Measles morbillivirus, HeLa
RVFV Rec. ZH501-GFP = test: microbe, parasite or virus in culture; assay type: cell-based, Rift Valley Fever virus
[8] = Cell viability assay (CellTiter-Glo 2.0), HeLa; conditions: human, uninfected HeLa cells
MARV Rec. Bat371-Gluc = test: organism not typed; conditions: Huh-7
HeV 1996 [9] = test: microbe, parasite or virus in culture; conditions: Henipavirus hendraense, HeLa
NiV B-2004 [10] = tested on: NiV B-2004
[11] = Cell viability assay (CellTiter-Glo 2.0), macrophages; conditions: human, uninfected peripheral blood macrophages (Mϕ)
Rhabdo = test: Potency by virus family (Fig. 2), Rhabdo; assay type: cell-based; conditions: read-out: potency class (EC50)
[12] = tested on: TBEV Hypr (Tick-borne Encephalitis virus); test: in vitro; conditions: human
[13] = tested on: MARV Rec. Bat371-Gluc (Marburg virus); test: in vitro; conditions: human
[14] = Cell viability assay (CellTiter-Glo 2.0), HMVEC-L; conditions: human
Ebola virus [15] = conditions: human, in vivo; cited from earlier work
NiV minigenome = test: cells; assay type: cell-based, Nipah virus
Filo (filoviruses) [16] = conditions: cited from earlier work
[17] = tested on: reporter and wild-type filo-, pneumo-, and paramyxoviruses; test: organism not typed; conditions: read-out: EC50 values (range over viruses)
[18] = tested on: ANDV Chile 9717869 (Andes virus); test: in vitro; conditions: human
Paramyxo = test: Potency by virus family (Fig. 2), Paramyxo; assay type: cell-based; conditions: read-out: potency class (EC50)
NiV B-2004 (Nipah virus) [19] = test: in vitro; conditions: human; remark: listed apart in the source
[20] = tested on: KFDV P9605 (Kyasanur Forest Disease virus); test: in vitro; conditions: human
HeV 1996 (Hendra virus) [21] = test: in vitro; conditions: human; remark: listed apart in the source
[22] = tested on: OHFV Bogoluvovska (Omsk Hemorrhagic Fever virus); test: in vitro; conditions: human
Filo (filoviruses) [23] = test: organism not typed; assay type: cell-based; conditions: read-out: potency class (EC50)
Bunya = test: Potency by virus family (Fig. 2), Bunya; assay type: cell-based; conditions: read-out: potency class (EC50)
[24] = tested on: LASV Josiah (Lassa virus); test: in vitro; conditions: human
Ebola virus [25] = conditions: in vivo; cited from earlier work
ANDV Chile 9717869 = test: microbe, parasite or virus in culture; conditions: Orthohantavirus andesense, Huh-7
HeV 1996 [26] = tested on: HeV 1996

## N#C[C@@]1(c2ccc3c(N)ncnn23)O[C@H](CO)[C@@H](O)[C@H]1O [Nuc]
SARS-CoV
  antiviral activity (active or not): shown to have activity
[1]
  CC50 at 72 h: > 50000 nM
[2]
  EC50: 1000 to 3000 nM
EBOV Makona
  EC50: 1000 nM
  reduction in virus yield: greater than 5
NiV B-2004 [3]
  EC90: 2200 nM
WNV
  antiviral activity (active or not): not
TBEV Hypr
  EC50: 51200 nM
  EC90: > 150000 nM
NiV B-2004 (Nipah virus) [4]
  selectivity ratio: 60
DenV
  antiviral activity (active or not): active
DenV; listed as GS-441524
  antiviral activity (active or not): shown to have activity
MV Rec. rMV^EZGFP(3)
  EC50: 990 ± 360 nM
  EC90: 2600 nM
MuV IA 2006
  EC50: 9700 nM
EBOV wt Makona
  EC50: 1610 ± 420 nM
MV EZ vaccine [5]
  EC50: 2000 nM
HeV 1996 (Hendra virus) [6]
  selectivity ratio: 50
hPIV3
  antiviral activity (active or not): shown to have activity
MV EZ vaccine [7]
  EC50: 2010 nM
  EC90: 5100 nM
RVFV Rec. ZH501-GFP
  EC50: little to no antiviral activity; also recorded: No inhibition
RVFV Rec. ZH501-GFP; Rift Valley fever virus, Huh-7
  EC50: > 50000 nM
[8]
  CC50 at 72 h: > 50000 nM

## CCC(CC)COC(=O)[C@H](C)N[P@](=O)(OC[C@H]1O[C@@](C#N)(c2ccc3c(N)ncnn23)[C@H](O)[C@@H]1O)Oc1ccccc1 [GS-5734]
MARV Rec. Bat371-Gluc
  EC50: 19.3 nM
  EC90: 52 nM
RSV Rec. rgRSV224 (A2)
  EC50: 21 nM
EBOV Makona
  EC50: 3 nM
  reduction in virus yield: greater than 4
HeV 1996 [9]
  EC50: 54.8 ± 1.3 nM
  EC90: 117 nM
NiV B-2004 [10]
  EC50: 32 nM
[11]
  CC50 at 72 h: 2000 nM
Rhabdo
  EC50: > 4000 nM
TBEV Hypr
  EC90: 3500 nM
[12]
  selectivity ratio: 4.8
[13]
  selectivity ratio: 526
DenV; not tested in this paper, no reference given
  inhibition of virus: inhibited
[14]
  CC50 at 72 h: 8500 nM
MV Rec. rMV^EZGFP(3)
  EC50: 36.5 ± 28 nM
  EC90: 73 nM
Ebola virus [15]
  survival of patients: both of whom survived
LASV Josiah
  EC50: 4500 nM
EBOV Rec. Mayinga-Gluc
  EC50: 21 nM
NiV minigenome
  EC50: sub-micromolar range
NiV minigenome; Henipavirus nipahense, HeLa, 48 h
  EC50: 49 nM
Filo (filoviruses) [16]
  activity in cell-based antiviral assays: shown activity
[17]
  EC50: 3 to 790 nM
[18]
  selectivity ratio: 1.4
Paramyxo
  EC50: < 100 nM
AHFV 200300001
  EC50: 4200 nM
NiV B-2004 (Nipah virus) [19]
  selectivity ratio: 259
[20]
  selectivity ratio: 5.6
HeV 1996 (Hendra virus) [21]
  selectivity ratio: 150
[22]
  selectivity ratio: 8.3
Filo (filoviruses) [23]
  EC50: < 100 nM
Bunya
  EC50: > 4000 nM
RVFV Rec. ZH501-GFP
  EC50: minimal to no antiviral activity; also recorded: No inhibition
RVFV Rec. ZH501-GFP; Rift Valley fever virus, Huh-7
  EC50: > 10000 nM
[24]
  selectivity ratio: 2.2
[8]
  CC50 at 72 h: 8300 nM
Ebola virus [25]
  protection from lethal Ebola virus infection: protected
ANDV Chile 9717869
  EC50: 6950 ± 3100 nM
  EC90: 10100 nM
HeV 1996 [26]
  EC50: 55 nM
